Data as given in PubChem BioAssay AID2060896 (Molecular Pharmacology Branch, DTP, NCI, 2025).

Tested on: 941728-121-R-J1-PDC complex spheroid viability
Experiment: Anticancer human tumor 941728-121-R-J1-PDC patient-derived lung adenocarcinoma cell line growth inhibition [RAS]
Details: for IC50: curve of first compound; for viability, T/C: stronger effect = lower value
Summary of the method: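 Multi-cell-type spheroids: tumor cells plus HUVEC endothelial cells and mesenchymal stem cells. RAS-pathway inhibitors were combined with targeted agents, each dosed in half-log steps down from clinical Cmax, or from 10 microM when Cmax was unknown.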

[1] = second compound 0.000949 µM, first compound 0.0316 µM
[2] = second compound 0.000949 µM, first compound 0.1 µM
[3] = second compound 0.000949 µM, first compound 0.316 µM
[4] = second compound 0.000949 µM, first compound 1 µM
[5] = second compound 0.000949 µM, first compound 3.16 µM
[6] = second compound 0.000949 µM, first compound 10 µM
[7] = second compound 0.003 µM, first compound 0.0316 µM
[8] = second compound 0.003 µM, first compound 0.1 µM
[9] = second compound 0.003 µM, first compound 0.316 µM
[10] = second compound 0.003 µM, first compound 1 µM
[11] = second compound 0.003 µM, first compound 3.16 µM
[12] = second compound 0.003 µM, first compound 10 µM
[13] = second compound 0.00949 µM, first compound 0.0316 µM
[14] = second compound 0.00949 µM, first compound 0.1 µM
[15] = second compound 0.00949 µM, first compound 0.316 µM
[16] = second compound 0.00949 µM, first compound 1 µM
[17] = second compound 0.00949 µM, first compound 3.16 µM
[18] = second compound 0.00949 µM, first compound 10 µM
[19] = second compound 0.03 µM, first compound 0.0316 µM
[20] = second compound 0.03 µM, first compound 0.1 µM
[21] = second compound 0.03 µM, first compound 0.316 µM
[22] = second compound 0.03 µM, first compound 1 µM
[23] = second compound 0.03 µM, first compound 3.16 µM
[24] = second compound 0.03 µM, first compound 10 µM
[25] = second compound 0.0949 µM, first compound 0.0316 µM
[26] = second compound 0.0949 µM, first compound 0.1 µM
[27] = second compound 0.0949 µM, first compound 0.316 µM
[28] = second compound 0.0949 µM, first compound 1 µM
[29] = second compound 0.0949 µM, first compound 3.16 µM
[30] = second compound 0.0949 µM, first compound 10 µM
[31] = second compound 0.3 µM, first compound 0.0316 µM
[32] = second compound 0.3 µM, first compound 0.1 µM
[33] = second compound 0.3 µM, first compound 0.316 µM
[34] = second compound 0.3 µM, first compound 1 µM
[35] = second compound 0.3 µM, first compound 3.16 µM
[36] = second compound 0.3 µM, first compound 10 µM
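Further: spheroids exposed to compounds for 7 days before readout.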
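Wherever viability, T/C is given: 100% = DMSO vehicle control viability.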

How did the IC50 (second compound 0.000949 µM) turn out when `CC(C)NCC(C(=O)N1CCN(c2ncnc3c2C(C)CC3O)CC1)c1ccc(Cl)cc1` (stereo unspecified) + CCn1c(-c2cccnc2C(C)OC)c2c3cc(ccc31)N1CCOC(CC(NC(=O)C(C(C)C)N(C)C(=O)C3(F)CCN(C(=O)C#CC(C)(C)N(C)C)CC3)C(=O)N3CCCC(N3)C(=O)OCC(C)(C)C2)C1 was run?
Its IC50 is under 31.6 nM.

What about the IC50 (second compound 0.003 µM) of the same compound?
The IC50 was under 31.6 nM.

And the IC50 (second compound 0.00949 µM)?
The IC50 was under 31.6 nM.

And the IC50 (second compound 0.03 µM)?
Its IC50 is under 31.6 nM.

What about the IC50 (second compound 0.0949 µM) of the same compound?
The IC50 was under 31.6 nM.

And the IC50 (second compound 0.3 µM)?
Its IC50 is under 31.6 nM.

What about the viability, T/C [1] of the same compound?
Its viability, T/C is 25.4%.

And the viability, T/C [2]?
Its viability, T/C is 23%.

And the viability, T/C [3]?
Its viability, T/C is 17.7%.

What about the viability, T/C [4] of the same compound?
The viability, T/C was 18.8%.

What about the viability, T/C [5] of the same compound?
Its viability, T/C is 14.5%.

What about the viability, T/C [6] of the same compound?
Its viability, T/C is 7.61%.

And the viability, T/C [7]?
The viability, T/C was 23.5%.

And the viability, T/C [8]?
Its viability, T/C is 21.9%.

And the viability, T/C [9]?
Its viability, T/C is 18.5%.

And the viability, T/C [10]?
The viability, T/C was 18.1%.

And the viability, T/C [11]?
The viability, T/C was 14.7%.

What about the viability, T/C [12] of the same compound?
The viability, T/C was 9.24%.

And the viability, T/C [13]?
Its viability, T/C is 23.1%.

And the viability, T/C [14]?
Its viability, T/C is 15.8%.

What about the viability, T/C [15] of the same compound?
Its viability, T/C is 22.4%.

What about the viability, T/C [16] of the same compound?
Its viability, T/C is 17.5%.

And the viability, T/C [17]?
The viability, T/C was 13.2%.

What about the viability, T/C [18] of the same compound?
The viability, T/C was 9.76%.

What about the viability, T/C [19] of the same compound?
The viability, T/C was 22.8%.

What about the viability, T/C [20] of the same compound?
Its viability, T/C is 22.1%.

And the viability, T/C [21]?
Its viability, T/C is 19.3%.

And the viability, T/C [22]?
The viability, T/C was 17.7%.

And the viability, T/C [23]?
Its viability, T/C is 12.9%.

What about the viability, T/C [24] of the same compound?
Its viability, T/C is 10.9%.

And the viability, T/C [25]?
Its viability, T/C is 21.1%.

And the viability, T/C [26]?
Its viability, T/C is 21.2%.

And the viability, T/C [27]?
Its viability, T/C is 20.7%.

What about the viability, T/C [28] of the same compound?
The viability, T/C was 17.8%.

What about the viability, T/C [29] of the same compound?
Its viability, T/C is 11.9%.

What about the viability, T/C [30] of the same compound?
The viability, T/C was 10.9%.

And the viability, T/C [31]?
Its viability, T/C is 24.7%.

And the viability, T/C [32]?
The viability, T/C was 22.9%.

What about the viability, T/C [33] of the same compound?
The viability, T/C was 18.9%.

What about the viability, T/C [34] of the same compound?
Its viability, T/C is 17.1%.

What about the viability, T/C [35] of the same compound?
The viability, T/C was 13%.

What about the viability, T/C [36] of the same compound?
Its viability, T/C is 11.2%.

Which results are given for `CC(C)n1nc(-c2ccc3oc(N)nc3c2)c2c(N)ncnc21` + CCn1c(-c2cccnc2C(C)OC)c2c3cc(ccc31)N1CCOC(CC(NC(=O)C(C(C)C)N(C)C(=O)C3(F)CCN(C(=O)C#CC(C)(C)N(C)C)CC3)C(=O)N3CCCC(N3)C(=O)OCC(C)(C)C2)C1?
IC50 (second compound 0.000949 µM): < 0.316 nM; IC50 (second compound 0.003 µM): < 0.316 nM; IC50 (second compound 0.00949 µM): < 0.316 nM; IC50 (second compound 0.03 µM): < 0.316 nM; IC50 (second compound 0.0949 µM): < 0.316 nM; IC50 (second compound 0.3 µM): < 0.316 nM; viability, T/C (second compound 0.000949 µM, first compound 0.000316 µM): 21.4%; viability, T/C (second compound 0.000949 µM, first compound 0.001 µM): 19.7%; viability, T/C (second compound 0.000949 µM, first compound 0.00316 µM): 12.9%; viability, T/C (second compound 0.000949 µM, first compound 0.01 µM): 15.4%; viability, T/C [1]: 11.6%; viability, T/C [2]: 6.3%; viability, T/C (second compound 0.003 µM, first compound 0.000316 µM): 23.6%; viability, T/C (second compound 0.003 µM, first compound 0.001 µM): 19.4%; viability, T/C (second compound 0.003 µM, first compound 0.00316 µM): 14.5%; viability, T/C (second compound 0.003 µM, first compound 0.01 µM): 15.6%; viability, T/C [7]: 9.94%; viability, T/C [8]: 7.46%; viability, T/C (second compound 0.00949 µM, first compound 0.000316 µM): 21%; viability, T/C (second compound 0.00949 µM, first compound 0.001 µM): 17.3%; viability, T/C (second compound 0.00949 µM, first compound 0.00316 µM): 19.8%; viability, T/C (second compound 0.00949 µM, first compound 0.01 µM): 15.3%; viability, T/C [13]: 9.22%; viability, T/C [14]: 6.25%; viability, T/C (second compound 0.03 µM, first compound 0.000316 µM): 20.8%; viability, T/C (second compound 0.03 µM, first compound 0.001 µM): 19.7%; viability, T/C (second compound 0.03 µM, first compound 0.00316 µM): 16.8%; viability, T/C (second compound 0.03 µM, first compound 0.01 µM): 14.8%; viability, T/C [19]: 8.83%; viability, T/C [20]: 8.55%; viability, T/C (second compound 0.0949 µM, first compound 0.000316 µM): 18.8%; viability, T/C (second compound 0.0949 µM, first compound 0.001 µM): 20.8%; viability, T/C (second compound 0.0949 µM, first compound 0.00316 µM): 17.4%; viability, T/C (second compound 0.0949 µM, first compound 0.01 µM): 15.2%; viability, T/C [25]: 9.76%; viability, T/C [26]: 10.1%; viability, T/C (second compound 0.3 µM, first compound 0.000316 µM): 21.7%; viability, T/C (second compound 0.3 µM, first compound 0.001 µM): 18.9%; viability, T/C (second compound 0.3 µM, first compound 0.00316 µM): 18.9%; viability, T/C (second compound 0.3 µM, first compound 0.01 µM): 15.9%; viability, T/C [31]: 10.5%; viability, T/C [32]: 10.8%

How did the IC50 (second compound 0.000949 µM) turn out when `C[C@@H](NC(=O)c1ncnc(N)c1Cl)c1ncc(C(=O)Nc2cc(C(F)(F)F)c(Cl)cn2)s1` + CCn1c(-c2cccnc2C(C)OC)c2c3cc(ccc31)N1CCOC(CC(NC(=O)C(C(C)C)N(C)C(=O)C3(F)CCN(C(=O)C#CC(C)(C)N(C)C)CC3)C(=O)N3CCCC(N3)C(=O)OCC(C)(C)C2)C1 was run?
The IC50 was under 31.6 nM.

What about the IC50 (second compound 0.003 µM) of the same compound?
The IC50 was under 31.6 nM.

What about the IC50 (second compound 0.00949 µM) of the same compound?
The IC50 was under 31.6 nM.

What about the IC50 (second compound 0.03 µM) of the same compound?
The IC50 was under 31.6 nM.

What about the IC50 (second compound 0.0949 µM) of the same compound?
The IC50 was under 31.6 nM.

And the IC50 (second compound 0.3 µM)?
The IC50 was under 31.6 nM.

And the viability, T/C [1]?
The viability, T/C was 25.9%.

What about the viability, T/C [2] of the same compound?
Its viability, T/C is 26.5%.

And the viability, T/C [3]?
The viability, T/C was 20.4%.

What about the viability, T/C [4] of the same compound?
Its viability, T/C is 26.4%.

And the viability, T/C [5]?
Its viability, T/C is 24.6%.

And the viability, T/C [6]?
Its viability, T/C is 16.7%.

What about the viability, T/C [7] of the same compound?
Its viability, T/C is 21.6%.

And the viability, T/C [8]?
The viability, T/C was 20.3%.

What about the viability, T/C [9] of the same compound?
Its viability, T/C is 19.4%.

And the viability, T/C [10]?
Its viability, T/C is 23.7%.

And the viability, T/C [11]?
The viability, T/C was 23.5%.

What about the viability, T/C [12] of the same compound?
The viability, T/C was 17.9%.

What about the viability, T/C [13] of the same compound?
The viability, T/C was 22.9%.

What about the viability, T/C [14] of the same compound?
Its viability, T/C is 19.8%.

And the viability, T/C [15]?
Its viability, T/C is 24.6%.

And the viability, T/C [16]?
The viability, T/C was 22.4%.

And the viability, T/C [17]?
The viability, T/C was 21%.

What about the viability, T/C [18] of the same compound?
The viability, T/C was 19.9%.

And the viability, T/C [19]?
The viability, T/C was 23.9%.

And the viability, T/C [20]?
Its viability, T/C is 20.6%.

What about the viability, T/C [21] of the same compound?
The viability, T/C was 26.3%.

And the viability, T/C [22]?
The viability, T/C was 23.1%.

And the viability, T/C [23]?
Its viability, T/C is 17.4%.

And the viability, T/C [24]?
The viability, T/C was 21.6%.

What about the viability, T/C [25] of the same compound?
The viability, T/C was 21.7%.

What about the viability, T/C [26] of the same compound?
Its viability, T/C is 24%.

What about the viability, T/C [27] of the same compound?
Its viability, T/C is 22.6%.

What about the viability, T/C [28] of the same compound?
Its viability, T/C is 24.4%.

And the viability, T/C [29]?
The viability, T/C was 21.2%.

What about the viability, T/C [30] of the same compound?
Its viability, T/C is 22.2%.

And the viability, T/C [31]?
The viability, T/C was 22.6%.

And the viability, T/C [32]?
Its viability, T/C is 26%.

And the viability, T/C [33]?
The viability, T/C was 23.2%.

What about the viability, T/C [34] of the same compound?
The viability, T/C was 25.1%.

What about the viability, T/C [35] of the same compound?
The viability, T/C was 21.9%.

And the viability, T/C [36]?
The viability, T/C was 20.1%.
